In brackets after ≈: the same amount, converted by molar mass.
Columns and labels:
[1] = tested on: MCF-7; parameters: method as in earlier work; settings: MCF-7 tumour cells; ref 6 (Alegaon et al.); cited from earlier work
[2] = tested on: A549; parameters: method as in earlier work; settings: A549 tumour cells; ref 6 (Alegaon et al.); cited from earlier work
[3] = tested on: methicillin-resistant S. aureus MIKROBANK 14.001; test: Broth microdilution MIC, methicillin-resistant S. aureus; format: cell-based, Staphylococcus aureus; settings: methicillin-resistant strain, 18 h, 35 °C; for MIC: Staphylococcus aureus, read-out: Minimal inhibitory concentration MIC, Staphylococcus aureus MIKROBANK 14.001
Method: (§1) Newly synthesised compounds’ antibacterial activities were tested in vitro against six aerobic bacteria reference strains: three Gram-positive (Staphylococcus aureus ATCC 25923, methicillin-resistant S. aureus MIKROBANK 14.001 reference strain from National Medicines Institute in Warsaw, and Staphylococcus epidermidis ATCC 12228) and three Gram-negative (Escherichia coli ATCC 25922, Proteus mirabilis ATCC 12453, and Pseudomonas aeruginosa ATCC 9027).
(§2) Bacterial cell suspensions equivalent to 0.5 McFarland (1.5 × 10^8 CFU/ml) were prepared in 0.85% sterile saline. Tested compounds’ stock solutions (50 mg/ml) were dissolved in dimethyl sulphoxide (DMSO).
(§3) Bacteria strain susceptibility to tested agents was determined by broth microdilution method. Broth microdilution method was carried out in accordance with Clinical and Laboratory Standards Institute recommendations and was used as reference method. Mueller–Hinton broth containing two-fold dilutions of the tested substances (at concentrations ranging from 3.91 to 1000 µg/ml) was used to determine their minimal inhibitory concentration (MIC) which is the lowest concentration of an antibacterial that will inhibit the visible growth of a microorganism after 18 h of incubation). Mueller–Hinton broth is recommended as the medium of choice for susceptibility testing of commonly isolated, rapidly growing aerobic, or facultative organisms. Gentamicin (KRKA, Slovenia), an aminoglycoside antibiotic active against a wide range of human bacterial infections, mostly Gram-negative bacteria including Pseudomonas, Proteus, Serratia, and the Gram-positive Staphylococcus, was used as a control antibacterial agent (at concentration from 0.12 µg to 1000 µg).
(§4) Tested compounds two-fold dilutions in Mueller–Hinton broth without bacteria were blank control wells (incubated on equal conditions). Polystyrene trays containing 96 wells were filled with serial two-fold Mueller–Hinton broth dilutions of tested agents. Next, the broth was inoculated with 20 μl of 0.5 McFarland microbial suspension (previously diluted 1:10 by Mueller–Hinton broth). Total volume per each well was 200 μl. After incubation (at 35 °C for 18 h), bacterial cultures’ optical density was measured by microplate reader (BioTek Synergy H4 Hybrid Reader) at 600 nm. The MIC values were determined by the comparison of broth bacterial culture OD600 containing tested concentrations of examined substances to blank control wells.

[4] = tested on: human lung carcinoma (A549); test: MTT antiproliferative assay, A549 cells; format: cell-based; settings: for IC50: Homo sapiens, MTT, 48 h exposure, read-out: IC50 [µg/ml] ± SEM, A549; for SI [IC50BJ/IC50], A549: safety index = IC50 normal cells (BJ)/IC50 A549
Method: (§5) The experiment was carried out using normal human skin fibroblasts (BJ) and tumour cell lines: human lung carcinoma (A549), human hepatocellular carcinoma (HepG2), and human breast adenocarcinoma (MCF-7). All cell lines were obtained from ATCC (American Type Culture Collection, England, UK) and cultured in the appropriate, recommended by ATCC, culture medium, additionally supplemented with 10% foetal bovine serum and antibiotics: 100 U/ml penicillin and 100 µg/ml streptomycin. The cells were maintained at 37 °C in a humidified atmosphere of 5% CO2 and 95% air. Antiproliferative activity of the new compounds was assessed by, commonly used for this purpose, colorimetric MTT assay. Cells with active mitochondrial dehydrogenases reduced intracellularly the tetrazolium dye into purple formazan, which is proportional to the number of viable cells. The cells were seeded in 96-multiwell plates in 100 μl of the appropriate complete culture medium at a concentration of 7 × 10^3 cells/well in the case of BJ cells (normal fibroblasts), 1 × 10^4 cells/well in the case of A549 cells (lung cancer), 1.5 × 10^4 cells/well in the case of HepG2 cells (liver cancer), and 2 × 10^4 cells/well in the case of MCF-7 cells (breast cancer) so as to obtain 60–70% confluent culture after 24 h of incubation at 37 °C – the cells are then in the log (logarithmic) phase, during a period of active proliferation, but still have an unoccupied space to divide. Afterwards, the culture medium was discarded and replaced with 100 µl of different concentrations of new tested compounds and reference antiproliferative agent: irinotecan. The stock solutions of the compounds were prepared in DMSO, and solvent control was being tested concurrently to exclude toxicity attributed to DMSO. Ten serial two-fold dilutions using culture medium were performed to prepare different concentrations of the tested compounds, and the highest tested concentration was 200 µg/ml. Untreated cells (maintained in the complete culture medium) served as a negative control. After exposing cells for 48 h to the tested derivatives, the MTT assay was performed as described earlier. Three independent experiments (n = 3) were performed in a quadruplicate. The obtained data were analysed using GraphPad Prism 5, version 5.03 software (La Jolla, CA). […] Moreover, safety index (SI) was calculated using the following formula: SI=IC50normal cells (BJ)/IC50cancer cells

[5] = tested on: Escherichia coli ATCC 25922; test: Broth microdilution MIC, E. coli ATCC 25922; format: cell-based; settings: ATCC25922, 18 h, 35 °C, read-out: Concentration inhibiting E. coli ATCC 25922 growth (MIC)
Method: as §1, §2
Bacteria strain susceptibility to tested agents was determined by broth microdilution method. Broth microdilution method was carried out in accordance with Clinical and Laboratory Standards Institute recommendations and was used as reference method. […]
Tested compounds two-fold dilutions in Mueller–Hinton broth without bacteria were blank control wells (incubated on equal conditions). […] After incubation (at 35 °C for 18 h), bacterial cultures’ optical density was measured by microplate reader (BioTek Synergy H4 Hybrid Reader) at 600 nm. The MIC values were determined by the comparison of broth bacterial culture OD600 containing tested concentrations of examined substances to blank control wells.

[6] = tested on: human hepatocellular carcinoma (HepG2); test: MTT antiproliferative assay, HepG2 cells; format: cell-based; settings: for IC50: Homo sapiens, MTT, 48 h exposure, read-out: IC50 [µg/ml] ± SEM, HepG2
Method: as §5

[7] = tested on: human breast adenocarcinoma (MCF-7); test: MTT antiproliferative assay, MCF-7 cells; format: cell-based; settings: for IC50: Homo sapiens, MCF7, MTT, 48 h exposure, read-out: IC50 [µg/ml] ± SEM, MCF-7
Method: as §5

[8] = tested on: Staphylococcus epidermidis ATCC 12228; test: Broth microdilution MIC, S. epidermidis ATCC 12228; format: cell-based; settings: 35 °C; for Minimal inhibitory concentration MIC, Staphylococcus epidermidis 12228: 18 h; for MIC: Staphylococcus epidermidis, ATCC12228, 18 h, read-out: Minimal inhibitory concentration MIC, Staphylococcus epidermidis 12228
Method: as §1, §2, §3, §4

[9] = tested on: Staphylococcus aureus ATCC 25923; test: Broth microdilution MIC, S. aureus ATCC 25923; format: cell-based; settings: 35 °C; for Minimal inhibitory concentration MIC, Staphylococcus aureus 25923: 18 h; for MIC: Staphylococcus aureus, ATCC25923, 18 h, read-out: Minimal inhibitory concentration MIC, Staphylococcus aureus 25923
Method: as §1, §2, §3, §4

[10] = tested on: normal human skin fibroblasts (BJ); test: MTT assay, normal fibroblasts BJ; format: cell-based; settings: Skin fibroblast, 48 h exposure, read-out: IC50 [µg/ml] ± SEM, BJ
Method: as §5

[11] = MCF-7 cells, compared to irinotecan

| SMILES | MIC [3] [µg/mL] | Minimal inhibitory concentration MIC, Staphylococcus aureus MIKROBANK 14.001 [3] [µg/mL] | IC50 ([4]; A549 cells) [µg/mL] | SI [IC50BJ/IC50], A549 [4] | IC50 ([6]; HepG2 cells) [µg/mL] | melting point [°C] | IC50 ([7]; MCF-7 cells) [µg/mL] | Minimal inhibitory concentration MIC, Staphylococcus epidermidis 12228 [8] [µg/mL] | MIC [8] [µg/mL] | Minimal inhibitory concentration MIC, Staphylococcus aureus 25923 [9] [µg/mL] | MIC [9] [µg/mL] | IC50 [10] [µg/mL] | other results |
| --- | --- | --- | --- | --- | --- | --- | --- | --- | --- | --- | --- | --- | --- |
| COc1cc(-c2nnc(NC(=O)CC3SC(=O)NC3=O)s2)cc(OC)c1OC (stereo not drawn) [2-(2,4-dioxo-1,3-thiazolidin-5-yl)-N-[5-(3,4,5-trimethoxyphenyl)-1,3,4-thiadiazol-2-yl]acetamide] | – | – | – | – | – | – | – | – | – | – | – | – | IC50, MCF-7 (literature) [1]: 15.28 µg/mL (≈ 36 µM); IC50, A549 (literature) [2]: 12.7 µg/mL (≈ 29.9 µM) |
| O=C(C=C1SC(=O)NC1=O)Oc1ccccc1C=NNC(=O)c1cccc(Cl)c1 [Compound 18, 2-{[2-(3-Chlorobenzoyl)hydrazinylidene]methyl}phenyl (2,4-dioxo-1,3-thiazolidin-5-ylidene)acetate] | 125 | 125 | 8.08 ± 1.05 (≈ 18.8 µM) | 1.24 | 3.86 ± 1.07 (≈ 8.98 µM) | 243 to 245 | 1.59 ± 1.06 (≈ 3.7 µM) | 125 | 125 | 62.5 | 62.5 | 10.1 ± 1.18 (≈ 23.4 µM) | IC50 fold lower compared to irinotecan, A549 ([4]; A549 cells, compared to irinotecan): five-fold lower; MIC [5]: 125 µg/mL; IC50 fold lower compared to irinotecan, HepG2 ([6]; HepG2 cells, compared to irinotecan): four-fold lower; IC50 fold lower than IC50 of irinotecan, MCF-7 [7, 11]: 13 fold; SI value compared to the reference substance, MCF-7 [7, 11]: three-fold higher |
| Cc1ccc(NC(=S)NN=Cc2cccc(OC(=O)CC3SC(=O)NC3=O)c2)cc1 (stereo not drawn) [Compound 23, 3-[{2-[(4-Methylphenyl)carbamothioyl]hydrazinylidene}methyl]phenyl (2,4-dioxo-1,3-thiazolidin-5-yl)acetate] | 125 | 125 | 31.3 ± 1.66 (≈ 70.8 µM) | 0.80 | 15.2 ± 1.25 (≈ 34.3 µM) | 194 to 196 | 34.2 ± 1.12 (≈ 77.2 µM) | 62.5 | 62.5 | 125 | 125 | 25.2 ± 1.52 (≈ 56.9 µM) | SI [IC50BJ/IC50], HepG2 ([6]; safety index = IC50 normal cells (BJ)/IC50 HepG2): 1.66; SI [IC50BJ/IC50], MCF-7 ([7]; safety index = IC50 normal cells (BJ)/IC50 MCF-7): 0.74 |

From paper PMC6010082, “Synthesis and in vitro antiproliferative and antibacterial activity of new thiazolidine-2,4-dione derivatives” (Journal of Enzyme Inhibition and Medicinal Chemistry, 2017)
